Laboratory results: patent US20120302748A1, “TREATMENT OR PROPHYLAXIS OF PROLIFERATIVE CONDITIONS” (THE UNIVERSITY COURT OF THE UNIVERSITY OF DUNDEE, priority 2009, published 2012)
Like-named read-outs stand apart in the source and are kept apart here. Values belong to the compound of their own block, whether it stands above or below them.

Tests used:
[1] = tested on: CHO/CYP1B1 cells
[2] = tested on: human liver microsomes (HLM); assay: Pooled human liver microsome (HLM) fragmentation of coumarin model prodrugs; type: in vitro ADME; details: 60 μl HLM in 1.5 ml, pH 7.4, 37° C.; mean ± standard deviation of three
[3] = molecular target: T1, CYP1B1 (Homo sapiens, UniProt Q16678); assay: Supersomal CYP1B1 fragmentation of coumarin model prodrugs (kinetic fluorimetry); type: biochemical; design: purchased BD Gentest, Oxford, UK; details: for Specific fragmentation activity CYP1B1: 10 μmol dm^−3 prodrug, 10 pmol enzyme, pH 7.4, 37° C., mean ± standard deviation of three
T1 sequence (Q16678 1-543): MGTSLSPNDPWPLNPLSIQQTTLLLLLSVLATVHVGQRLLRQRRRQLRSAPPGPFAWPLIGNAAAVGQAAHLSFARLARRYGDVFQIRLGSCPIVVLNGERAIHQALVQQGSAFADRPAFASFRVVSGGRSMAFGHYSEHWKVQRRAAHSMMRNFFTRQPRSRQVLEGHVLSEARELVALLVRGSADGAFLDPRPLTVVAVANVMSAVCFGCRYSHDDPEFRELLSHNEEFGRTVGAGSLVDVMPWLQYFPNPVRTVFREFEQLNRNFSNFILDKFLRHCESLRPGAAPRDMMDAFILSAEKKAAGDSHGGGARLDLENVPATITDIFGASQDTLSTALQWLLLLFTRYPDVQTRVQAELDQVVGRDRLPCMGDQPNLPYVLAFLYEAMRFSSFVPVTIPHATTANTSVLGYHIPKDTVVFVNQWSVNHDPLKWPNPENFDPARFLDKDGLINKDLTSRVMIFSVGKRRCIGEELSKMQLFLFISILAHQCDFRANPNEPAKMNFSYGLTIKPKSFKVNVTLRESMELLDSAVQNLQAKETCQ

[4] = molecular target: T2, CYP1A2 (Homo sapiens, UniProt P05177); assay: Supersomal CYP1A2 fragmentation of coumarin model prodrugs (kinetic fluorimetry); type: biochemical; details: 10 μmol dm^−3 prodrug, 10 pmol enzyme, pH 7.4, 37° C.; mean ± standard deviation of three
T2 construct: purchased BD Gentest, Oxford, UK
T2 sequence (P05177 2-516 limits assumed): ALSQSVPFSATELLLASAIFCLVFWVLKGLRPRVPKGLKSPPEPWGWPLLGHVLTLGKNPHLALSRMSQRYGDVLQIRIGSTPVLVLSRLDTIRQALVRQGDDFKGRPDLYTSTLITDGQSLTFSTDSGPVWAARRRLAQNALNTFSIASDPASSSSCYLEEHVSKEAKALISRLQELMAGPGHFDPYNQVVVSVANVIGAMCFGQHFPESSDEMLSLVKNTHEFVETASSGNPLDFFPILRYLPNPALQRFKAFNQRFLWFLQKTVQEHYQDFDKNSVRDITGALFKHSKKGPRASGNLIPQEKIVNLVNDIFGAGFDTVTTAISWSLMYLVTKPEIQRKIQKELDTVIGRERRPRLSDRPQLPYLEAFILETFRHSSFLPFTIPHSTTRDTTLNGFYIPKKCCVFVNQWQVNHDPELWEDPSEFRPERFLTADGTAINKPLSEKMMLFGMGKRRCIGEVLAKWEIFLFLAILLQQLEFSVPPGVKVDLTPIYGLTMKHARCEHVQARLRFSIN

[5] = molecular target: T1, CYP1B1; assay: CYP1B1 substrate prediction model (Gaussian Kernel weighted k-NN); details: predicted versus actual
[6] = molecular target: T1, CYP1B1; assay: CYP1B1 substrate inhibition, P450-Glo Luciferin-CEE luminescent assay; details: human
[7] = tested on: UT-SCC-14 tumour cells; assay: Cytotoxicity in primary HNSCC tumour cell line UT-SCC-14 (MTS assay); details: Homo sapiens, 72 h, read-out: cytotoxicity IC50 UT-SCC-14
[8] = tested on: CHO/CYP1B1 cells; assay: cells; details: Cricetulus griseus
[9] = tested on: CYP1A1; assay: in vitro; details: Chinese hamster
[10] = in vitro; details: Chinese hamster
[11] = molecular target: T1, CYP1B1; assay: in vitro
[12] = molecular target: T3, CYP1A1 (Homo sapiens, UniProt P04798); assay: Supersomal CYP1A1 fragmentation of coumarin model prodrugs (kinetic fluorimetry); type: biochemical; design: purchased BD Gentest, Oxford, UK; details: 10 μmol dm^−3 prodrug, 10 pmol enzyme, pH 7.4, 37° C.; mean ± standard deviation of three
T3 sequence (P04798 1-512): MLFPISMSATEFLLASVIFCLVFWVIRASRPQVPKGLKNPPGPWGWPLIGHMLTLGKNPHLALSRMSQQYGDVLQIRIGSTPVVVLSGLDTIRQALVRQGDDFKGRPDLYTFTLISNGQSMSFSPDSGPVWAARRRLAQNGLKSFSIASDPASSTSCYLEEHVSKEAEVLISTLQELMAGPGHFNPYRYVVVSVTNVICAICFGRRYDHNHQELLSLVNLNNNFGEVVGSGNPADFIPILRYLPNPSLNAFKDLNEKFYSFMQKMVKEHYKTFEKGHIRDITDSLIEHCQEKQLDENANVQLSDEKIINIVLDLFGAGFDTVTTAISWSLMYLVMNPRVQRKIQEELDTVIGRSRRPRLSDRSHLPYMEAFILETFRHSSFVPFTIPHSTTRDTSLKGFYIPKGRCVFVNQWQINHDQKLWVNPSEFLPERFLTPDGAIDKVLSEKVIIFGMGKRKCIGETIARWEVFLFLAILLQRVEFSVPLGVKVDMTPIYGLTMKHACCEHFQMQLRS

SMILES: O=P(O)(NCCCl)NCCCl [Cl-IPM, N,N-bis(2-chloro-ethyl)phosphoramide, reference compound]
IC50 ([1]; Chinese hamster): 8 ± 5 nM

SMILES: Cc1cc(=O)oc2cc(OCc3cc4ccccc4o3)ccc12 [SU010A, 7-(benzofuran-2-ylmethoxy)-4-methyl-2H-chromen-2-one]
Specific fragmentation activity HLM [2]: 22.8 ± 0.69 pmol coumarin min^−1 pmol cytochrome P450^−1 | Specific fragmentation activity CYP1B1 [3]: 5.19 ± 0.15 pmol coumarin min^−1 pmol cytochrome P450^−1

SMILES: Cc1cc(=O)oc2cc(NC(=O)OCc3cc4ccccc4o3)ccc12 [SU018-03, benzofuran-2-ylmethyl 4-methyl-2-oxo-2H-chromen-7-ylcarbamate]
Specific fragmentation activity CYP1A2 [4]: no release | Specific fragmentation activity HLM [2]: no release | Specific fragmentation activity CYP1B1 [3]: no release

SMILES: COc1cc(OC)c2oc(COP(=O)(NCCCl)NCCCl)cc2c1 [SU025-04]
% CYP1B1 substrate inhibition accuracy [5]: 96% | inhibition at 0.5 mmol dm^−3 [6]: 91.22 ± 0.48% | IC50 [7]: 50 ± 10 nM | IC50 ([8]; 72 h, read-out: Cytotoxicity (IC50) CHO/CYP1B1 72 h): 9 ± 5 nM | IC50 ([8]; 96 h, read-out: Cytotoxicity (IC50) CHO/CYP1B1 96 h): 3 ± 2 nM | IC50 [9]: 25500 ± 1000 nM | IC50 ([10]; Cytotoxicity (IC50) CHO 72 h): 15200 ± 200 nM | IC50 ([10]; Cytotoxicity (IC50) CHO 96 h): 10100 ± 300 nM | IC50 ([10]; cytotoxicity IC50 in wild-type CHO cells): ≥ 10000 nM | IC50 ratio 72 h (CHO / CHO/CYP1B1) [1]: 1689

SMILES: COc1cc(OC)c2oc(COC(=O)Nc3ccn(C4OC(CO)C(O)C4(F)F)c(=O)n3)cc2c1 (stereo not drawn) [SU048-04, (5,7-dimethoxybenzofuran-2-yl)methyl 1-(3,3-difluoro-4-hydroxy-5-(hydroxymethyl)-tetrahydrofuran-2-yl)-2-oxo-1,2-dihydropyrimidin-4-ylcarbamate]
IC50 [7]: 940 ± 20 nM

SMILES: Cc1cc(=O)oc2cc(OCc3cc4cc(F)ccc4o3)ccc12 [VG015-05, 7-((5-fluorobenzofuran-2-yl)methoxy)-4-methyl-2H-chromen-2-one]
Specific fragmentation activity CYP1B1 [3]: 3.16 ± 0.28 pmol coumarin min^−1 pmol cytochrome P450^−1

SMILES: Cc1cc(=O)oc2cc(OCc3cc4cc(F)cc(F)c4o3)ccc12 [VG016-05, 7-((5,7-difluorobenzofuran-2-yl)methoxy)-4-methyl-2H-chromen-2-one]
% CYP1B1 substrate inhibition accuracy [5]: 82% | Specific fragmentation activity CYP1A2 [4]: no release | Specific fragmentation activity HLM [2]: no release | inhibition at 0.5 mmol dm^−3 [11]: 2.45 ± 0.32% | Specific fragmentation activity CYP1B1 [3]: no release | Specific fragmentation activity CYP1A1 [12]: no release

SMILES: COc1ccc2oc(COc3ccc4c(C)cc(=O)oc4c3)cc2c1 [VG027-05, 7-((5-methoxybenzofuran-2-yl)methoxy)-4-methyl-2H-chromen-2-one]
Specific fragmentation activity HLM [2]: 8.98 ± 0.49 pmol coumarin min^−1 pmol cytochrome P450^−1 | Specific fragmentation activity CYP1B1 [3]: 11.83 ± 0.15 pmol coumarin min^−1 pmol cytochrome P450^−1

SMILES: Cc1cc(=O)oc2cc(OCc3cc4cc(Cl)ccc4o3)ccc12 [VG028-05, 7-((5-chlorobenzofuran-2-yl)methoxy)-4-methyl-2H-chromen-2-one]
Specific fragmentation activity CYP1B1 [3]: 6.67 ± 0.01 pmol coumarin min^−1 pmol cytochrome P450^−1

SMILES: COc1cccc2cc(COc3ccc4c(C)cc(=O)oc4c3)oc12 [VG029-05, 7-((7-methoxybenzofuran-2-yl)methoxy)-4-methyl-2H-chromen-2-one]
Specific fragmentation activity CYP1B1 [3]: 6.45 ± 1.15 pmol coumarin min^−1 pmol cytochrome P450^−1

SMILES: COc1ccc2oc(COC(=O)Nc3ccc4c(C)cc(=O)oc4c3)cc2c1 [VG032-05, (5-methoxybenzofuran-2-yl)methyl 4-methyl-2-oxo-2H-chromen-7-ylcarbamate]
Specific fragmentation activity CYP1A2 [4]: no release | Specific fragmentation activity HLM [2]: 3.21 ± 0.25 pmol coumarin min^−1 pmol cytochrome P450^−1 | Specific fragmentation activity CYP1B1 [3]: 1.53±0.09 pmol coumarin min^−1 pmol cytochrome P450^−1 | CYP1B1 specific fragmentation activity, fold lower than VG027-05 ([3]; carbamate linker versus ether linker): ~6 fold

SMILES: Cc1cc(=O)oc2cc(OCc3cc4cc(Br)ccc4o3)ccc12 [VG035-04, 7-((5-bromobenzofuran-2-yl)methoxy)-4-methyl-2H-chromen-2-one]
Specific fragmentation activity CYP1B1 [3]: 8.85 ± 0.28 pmol coumarin min^−1 pmol cytochrome P450^−1

SMILES: COc1cc(OC)c2oc(COc3ccc4c(C)cc(=O)oc4c3)cc2c1 [VG035-05, 7-((5,7-dimethoxybenzofuran-2-yl)methoxy)-4-methyl-2H-chromen-2-one]
% CYP1B1 substrate inhibition accuracy [5]: 96% | Specific fragmentation activity CYP1A2 [4]: no release | Specific fragmentation activity HLM [2]: no release | inhibition at 0.5 mmol dm^−3 [11]: 97.34 ± 0.32% | Specific fragmentation activity CYP1B1 [3]: 13.65±1.00 pmol coumarin min^−1 pmol cytochrome P450^−1 | Specific fragmentation activity CYP1A1 [12]: no release

SMILES: Cc1cc(=O)oc2cc(NC(=O)OCc3cc4cc(Br)ccc4o3)ccc12 [VG036-05, (5-bromobenzofuran-2-yl)methyl 4-methyl-2-oxo-2H-chromen-7-ylcarbamate]
Specific fragmentation activity CYP1A2 [4]: no release | Specific fragmentation activity HLM [2]: no release | Specific fragmentation activity CYP1B1 [3]: no release | Specific fragmentation activity CYP1A1 [12]: no release

SMILES: COc1cc(OC)c2oc(COC(=O)Nc3ccc4c(C)cc(=O)oc4c3)cc2c1 [VG041-05, (5,7-dimethoxybenzofuran-2-yl)methyl 4-methyl-2-oxo-2H-chromen-7-ylcarbamate]
Specific fragmentation activity CYP1A2 [4]: no release | Specific fragmentation activity HLM [2]: no release | Specific fragmentation activity CYP1B1 [3]: no release

% CYP1B1 substrate inhibition accuracy [5]: 95% | inhibition at 0.5 mmol dm^−3 [11]: 92.13 ± 0.56%
SMILES: CCOc1ccc2nc3ccc(=O)cc-3oc2c1 [ethoxyresorufin, 7-ethoxyresorufin]

% CYP1B1 substrate inhibition accuracy [5]: 64% | inhibition at 0.5 mmol dm^−3 [11]: 1.63 ± 0.34%
SMILES: C=C[C@H]1C[N@@]2CC[C@H]1C[C@@H]2[C@@H](O)c1ccnc2ccc(OC)cc12 [quinidine]

% CYP1B1 substrate inhibition accuracy [5]: 95% | inhibition at 0.5 mmol dm^−3 [11]: 72.34 ± 0.56%
SMILES: Oc1ccc(C=Cc2cc(O)cc(O)c2)cc1 [resveratrol]

% CYP1B1 substrate inhibition accuracy [5]: 68% | inhibition at 0.5 mmol dm^−3 [11]: 2.89 ± 0.15%
SMILES: Nc1ccc(S(=O)(=O)Nc2ccnn2-c2ccccc2)cc1 [sulfaphenazole]
